In the oligonucleotide strings, read from the 5' end, every base follows the letter of its sugar. An asterisk marks phosphorothioate; unmarked linkages are phosphodiester. Other units and linkages are bracketed, terminal groups are in braces. A string of capitals states the bases alone. e = 2'-O-(2-methoxyethyl) (MOE); [5mC] = 5-methylcytosine; d = 2'-deoxy (DNA)

Data set [1] in a line: High fat fed mice (Example 51): intact oligonucleotide in liver tissue by capillary gel electrophoresis. Format: in vivo, mouse. As to conditions: 50 mg/kg i.p. twice weekly. The method, then:
In a further embodiment of the invention, the inhibition of apolipoprotein B mRNA in mice was compared to liver oligonucleotide concentration, total cholesterol, LDL-cholesterol and HDL-cholesterol. Male C57Bl/6 mice receiving a high fat diet (60% fat) were evaluated over the course of 6 weeks for the effects of treatment with twice weekly intraperitoneal injections of 50 mg/kg ISIS 147764 (SEQ ID NO: 109) or 50 mg/kg of the control oligonucleotide ISIS 141923 (SEQ ID NO: 858). Control animals received saline treatment. Animals were sacrificed after 2 days, 1, 2, 4 and 6 weeks of treatment. Each treatment group at each time point consisted of 8 mice.
Target expression in liver was measured by real-time PCR as described by other examples herein and is expressed as percent inhibition relative to saline treated mice. Total, LDL- and HDL-cholesterol levels were measured by routine clinical analysis using an Olympus Clinical Analyzer (Olympus America Inc., Melville, N.Y.) and are presented in mg/dL. Results from saline-treated animals are shown for comparison. Intact oligonucleotide in liver tissue was measured by capillary gel electrophoresis and is presented as micrograms of oligonucleotide per gram of tissue.
The oligonucleotide treatments described in this example were duplicated to investigate the extent to which effects of ISIS 147764 persist following cessation of treatment. Mice were treated as described, and sacrificed 1, 2, 4, 6 and 8 weeks following the cessation of oligonucleotide treatment.

The next data set concerns apolipoprotein B mRNA. Put plainly: ApoE knockout mice (Example 28): target mRNA levels in liver. Format: in vivo, mouse. Conditions: high fat diet, six weeks. From the text:
Female ApoE knockout mice ranged in age from 5 to 7 weeks and were placed on a normal diet for 2 weeks before study initiation. ApoE knockout mice were then fed ad libitum a 60% fat diet, with 0.15% added cholesterol to induce dyslipidemia and obesity. Control animals were maintained on a high-fat diet with no added cholesterol. […]
At study termination and forty eight hours after the final injections, animals were sacrificed and evaluated for target mRNA levels in liver by RT-PCR methods verified by Northern Blot analysis, glucose levels, cholesterol and lipid levels by HPLC separation methods and triglyceride and liver enzyme levels (performed by LabCorp Preclinical Services; San Diego, Calif.).
Data are normalized to saline controls.

Data set [2] can be described thus: Steatosis following long-term treatment (6, 12 and 20 weeks) in high-fat fed mice: histology and liver triglyceride content. The class given is in vivo, mouse. Conditions: high fat fed C57Bl/6 mice, 25 mg/kg i.p. twice weekly. The method, then: Quantitation of liver triglyceride content is also used to assess steatosis. Tissue triglyceride levels are measured using a Triglyceride GPO Assay (Sigma-Aldrich, St. Louis, Mo.).
Male C57Bl/6 mice were treated with twice weekly intraperitoneal injections of 25 mg/kg ISIS 147764 (SEQ ID NO: 109) or 25 mg/kg ISIS 141923 (SEQ ID NO: 858) for 6, 12 and 20 weeks. Saline treated animals served as controls. Each treatment group contained 4 animals. Animals were sacrificed at 6, 12 and 20 weeks and liver tissue was procured for histological analysis and measurement of tissue triglyeride content.

Data set [3] concerns mouse apolipoprotein B protein. Put plainly: Transgenic mice dosing study (Example 52): immunoblot of mouse apolipoprotein B protein in serum and liver. Format: in vivo. For orientation: Immunoblotting shows a protein as a band on a membrane.
The next data set has as its system apolipoprotein B protein. Put plainly: Apolipoprotein B protein in primary Cynomolgous monkey hepatocytes, immunoblot. Format: cell-based. How it is done: Additionally, protein was isolated from oligonucleotide-treated primary Cynomolgous monkey hepatocytes and subjected to immunoblot analysis to further assess apolipoprotein B protein expression. Immunoblotting was performed as described herein, using an antibody to human apolipoprotein B protein (US Biologicals, Swampscott, Mass.).

Data set [4] is described as follows: Long-term study in lean Cynomolgous monkeys (Example 64): serum lipids by nuclear magnetic resonance spectroscopy. As to conditions: one month. Format: in vivo, Cynomolgous monkey. How it is done: […] Saline-treated animals serve as controls. Each treatment group includes 2 to 3 animals of each sex.
The results from the one month interval of the long term treatment are shown in Table 50 and are normalized to saline-treated animals for mRNA and to untreated baseline values for lipid levels. Total cholesterol, LDL-cholesterol, HDL-cholesterol, LDL particle concentration and triglyceride levels in serum were measured by nuclear magnetic resonance spectroscopy by Liposcience (Raleigh, N.C.). Additionally, the concentration of intact oligonucleotide in liver was measured by capillary gel electrophoresis and is presented as micrograms of oligonucleotide per gram of liver tissue. Each result represents the average of data from 4 animals (2 males and 2 females).

Data set [5] is described as follows: C57BL/6NTac-TgN(APOB100) transgenic mice (Example 47): liver enzyme, cholesterol, LDL-cholesterol and triglyceride levels. The class given is in vivo, mouse. As to conditions: C57BL/6NTac-TgN(APOB100) mice, 25 mg/kg.

On to “147764 (eG*eT*e[5mC]*e[5mC]*e[5mC]*dT*dG*dA*dA*dG*dA*dT*dG*dT*d[5mC]*eA*eA*eT*eG*e[5mC]) [compound 147764]”, for which the Intact oligonucleotide in data set [1] (high fat fed male C57Bl/6 mice, treatment period 1 week) worked out at 121 µg/g; in data set [1] (high fat fed male C57Bl/6 mice, treatment period 2 weeks) it was 194 µg/g; in data set [1] (high fat fed male C57Bl/6 mice, treatment period 4 weeks), 340 µg/g; in data set [1] (high fat fed male C57Bl/6 mice, treatment period 6 weeks), 586 µg/g; in data set [1] (high fat fed male C57Bl/6 mice, treatment period 2 days), 85 µg/g; in data set [1] (high fat fed mice, 1 week after cessation of dosing), 215 µg/g. The Intact oligonucleotide in data set [1] (high fat fed mice, 2 weeks after cessation of dosing) is 168 µg/g; in data set [1] (high fat fed mice, 4 weeks after cessation of dosing) it was 124 µg/g; in data set [1] (high fat fed mice, 6 weeks after cessation of dosing) it was 70 µg/g; in data set [1] (high fat fed mice, 8 weeks after cessation of dosing), 43 µg/g.
On to “GTCCCTGAAGATGTCAATGC (2'-MOE gapmer, further chemistry not given here) [ISIS 147764]”, for which the “mRNA Percent Inhibition” value is on record as 2% with apolipoprotein B mRNA (5 mg/kg i.p. every three days), 42% with apolipoprotein B mRNA (25 mg/kg i.p. every three days) and 70% in the data set on apolipoprotein B mRNA (50 mg/kg i.p. every three days). The “liver tissue triglyceride content vs saline treated animals” value in data set [2] (6, 12 and 20 weeks) is recorded as “no significant differences”. In data set [2] (12 and 20 weeks), the “steatosis vs saline control animals (histology)” value is listed as “reduced”.
As to “ISIS 301012: SEQ ID NO: 247, antisense oligonucleotide targeted to human apolipoprotein B (antisense GCCTCAGTCTGCTTCGCACC; chemistry not given here)”, in data set [3], the “expression of the mouse apolipoprotein B protein in liver (immunoblot)” value is “does not change significantly” and the “expression of the mouse apolipoprotein B protein in serum (immunoblot)” value is “no significant change”. Further, the “apolipoprotein B expression (immunoblot)” value with apolipoprotein B protein was “substantial reduction”. In data set [4] (intravenous 2 mg/kg), the “HDL-cholesterol, % change normalized to untreated baseline value” (shortened to “HDL-cholesterol, % change normalized”) is listed as −23%; the “LDL Particle concentration, % change normalized to untreated baseline value” is reported as “+8%”; the “LDL-cholesterol, % change normalized to untreated baseline value” (“LDL-cholesterol, % change normalized” below) is reported as “+15%”; the “LDL/HDL, % change normalized to untreated baseline value” (from here on “LDL/HDL, % change normalized”) is on record as “+94%”. For the same substance, in data set [4] (intravenous 2 mg/kg), the “Total cholesterol, % change normalized to untreated baseline value” (shortened to “Total cholesterol, % change normalized”) was −6%; the “Total cholesterol/HDL, % change normalized to untreated baseline value” is listed as “+44%”; the “Triglyceride, % change normalized to untreated baseline value” (from here on “Triglyceride, % change normalized”) is on record as “+26%”. For the same substance, in data set [4] (intravenous 4 mg/kg), the “HDL-cholesterol, % change normalized” value is −15%; the “LDL Particle concentration, % change normalized to untreated baseline value” is reported as “+8%”; the “LDL-cholesterol, % change normalized” value is on record as “+9%”; the “LDL/HDL, % change normalized” value is listed as “+38%”. Besides, in data set [4] (intravenous 4 mg/kg), the “Total cholesterol, % change normalized” value is recorded as −2%; the “Total cholesterol/HDL, % change normalized to untreated baseline value” is “+22%”; the “Triglyceride, % change normalized” value is given as “+32%”. For the same substance, in data set [4] (intravenous 12 mg/kg), the “HDL-cholesterol, % change normalized” value was −8%; the “LDL Particle concentration, % change normalized to untreated baseline value” was −11%; the “LDL-cholesterol, % change normalized” value is listed as “+3%”; the “LDL/HDL, % change normalized” value was “+44%”. Also, in data set [4] (intravenous 12 mg/kg), the “Total cholesterol, % change normalized” value is listed as −2%; the “Total cholesterol/HDL, % change normalized to untreated baseline value” is given as “+21%”; the “Triglyceride, % change normalized” value is given as “+15%”. Also, in data set [4] (subcutaneous 3.5 mg/kg), the “HDL-cholesterol, % change normalized” value is “+13%”; the “LDL Particle concentration, % change normalized to untreated baseline value” was −14%; the “LDL-cholesterol, % change normalized” value was −4%; the “LDL/HDL, % change normalized” value is −15%. Further, in data set [4] (subcutaneous 3.5 mg/kg), the “Total cholesterol, % change normalized” value is listed as “+5%”; the “Total cholesterol/HDL, % change normalized to untreated baseline value” is −7%; the “Triglyceride, % change normalized” value is reported as “+1%”. In data set [4] (subcutaneous 20 mg/kg), the “HDL-cholesterol, % change normalized” value is “+5%”; the “LDL Particle concentration, % change normalized to untreated baseline value” is recorded as −21%; the “LDL-cholesterol, % change normalized” value is reported as −16%; the “LDL/HDL, % change normalized” value is −19%. Further, in data set [4] (subcutaneous 20 mg/kg), the “Total cholesterol, % change normalized” value was −5%; the “Total cholesterol/HDL, % change normalized to untreated baseline value” is recorded as −10%; the “Triglyceride, % change normalized” value was −3%. In data set [5] (2 weeks of treatment), the LDL-cholesterol levels is listed as 22 mg/dL. For the same substance, in data set [5] (4 weeks of treatment), the LDL-cholesterol levels is given as 17 mg/dL.

(Values after patent US7803930B2, “Antisense modulation of apolipoprotein B-expression” (Isis Pharmaceuticals, Inc., priority 2002, dated 2010).)
